Reference: patent US20080318938A1, “METHODS FOR TREATING ABERRANT CELL PROLIFERATION DISORDERS” (priority 2007, published 2008)

Key:
Test in all cases: Inhibition of cell proliferation (MTT)
Type in all cases: cell-based
Kasumi-1 = conditions: Homo sapiens; Kasumi-1, Leukemia; 48 hours
Experimental: (§1) Inhibition of cell proliferation is determined in human tumor cell lines. Innoculation density and doubling times for specific cell lines are listed at World Wide Web URL “dtp.nci.nih.gov/docs/misc/common_files/cell_list.html.”
(§2) • 1. Plate adherent cells the day before starting the experiment in 180 μl growth media (see list hereafter). • 2. Day of experiment, count and plate suspension cells in 180 μl growth media (see list on next page). • 3. Make 10× Compound, vehicle, and chemotherapeutic cocktail • a. Compound (1× to 10×) • i. 10 μM Compound to 100 μM • ii. 3 μM Compound to 30 μM • iii. 1 μM Compound to 10 μM • iv. 0.3 μM Compound to 3 μM • v. 0.1 μM Compound to 1 μM • b. Vehicle • i. PBS, equivalent to the volume used for 10 μM Compound (1× is ˜0.06% PBS) • c. Chemotherapeutic cocktail (1× to 10×): • i. 1 μM Velcade to 10 μM • ii. 100 μM Etoposide to 1 mM • iii. 20 μM Taxol to 200 μM • 4. Add 20 μl of the 10× compound/vehicle/chemotherapeutic cocktail to cells. • 5. Incubate at 37° C., 5% CO2 for 48 hours. • 6. Aspirate media. For suspension cells, spin plate at 1500 RPM for 10 minutes. Use a multichannel pipettor to slowly remove media. • 7. Add 200 μl of Thiazolyl Blue Tetrazolium Bromide (MTT) to each well: 0.863 mg/ml MTT in growth media.
(§3) Proliferation of several cancer cells was inhibited by compound TA1-1B (which is a particular mixture of the isomers represented by TA1-1A), as shown in the following table (Table 1). The value EC50 is the amount of Compound TA1-1B that results in 50% inhibition of proliferation of the indicated cell type.

OVCAR-3 = conditions: Homo sapiens; OVCAR-3, Ovarian; 48 hours
Experimental: as §1, §2, §3

RPMI-8226 = conditions: Homo sapiens; RPMI-8226, Leukemia; 48 hours
Experimental: as §1, §2, §3

OVCAR-5 = conditions: Homo sapiens; OVCAR-5, Ovarian; 48 hours
Experimental: as §1, §2, §3

JM1 = conditions: Homo sapiens; JM1, Lymphoma; 48 hours
Experimental: as §1, §2, §3

MOLT4 = conditions: Homo sapiens, MOLT-4; MOLT4, Leukemia; 48 hours
Experimental: as §1, §2, §3

MV-4-11 = conditions: Homo sapiens, MV4-11; MV-4-11, Leukemia; 48 hours
Experimental: as §1, §2, §3

SF-295 = conditions: Homo sapiens; SF-295, CNS; 48 hours
Experimental: as §1, §2, §3

Karpas299 = conditions: Homo sapiens, KARPAS-299; Karpas299, Lymphoma; 48 hours
Experimental: as §1, §2, §3

Hs602 = conditions: Homo sapiens; Hs602, Lymphoma; 48 hours
Experimental: as §1, §2, §3

Ramos = conditions: Homo sapiens, Lymphoma, 48 hours
Experimental: as §1, §2, §3

Daudi = conditions: Homo sapiens, Lymphoma, 48 hours
Experimental: as §1, §2, §3

DOHH2 = conditions: Homo sapiens, DOHH-2; DOHH2, Lymphoma; 48 hours
Experimental: as §1, §2, §3

HT = conditions: Homo sapiens, Lymphoma, 48 hours
Experimental: as §1, §2, §3

MDA-MB-435 = conditions: Homo sapiens; MDA-MB-435, Breast; 48 hours
Experimental: as §1, §2, §3

786-0 = conditions: Homo sapiens; 786-0, Renal; 48 hours
Experimental: as §1, §2, §3

KG-1 = conditions: Homo sapiens; KG-1, Leukemia; 48 hours
Experimental: as §1, §2, §3

SF-268 = conditions: Homo sapiens; SF-268, CNS; 48 hours
Experimental: as §1, §2, §3

IGROV1 = conditions: Homo sapiens, IGROV-1; IGROV1, Ovarian; 48 hours
Experimental: as §1, §2, §3

U266B1 = conditions: Homo sapiens; U266B1, Lymphoma; 48 hours
Experimental: as §1, §2, §3

H9 = conditions: Homo sapiens; H9, Lymphoma; 48 hours
Experimental: as §1, §2, §3

Jurkat = conditions: Homo sapiens, Leukemia, 48 hours
Experimental: as §1, §2, §3

U251 = conditions: Homo sapiens, U-251; U251, CNS; 48 hours
Experimental: as §1, §2, §3

HCC-2998 = conditions: Homo sapiens; HCC-2998, Colon; 48 hours
Experimental: as §1, §2, §3

SUDHL4 = conditions: Homo sapiens, SU-DHL-4; SUDHL4, Lymphoma; 48 hours
Experimental: as §1, §2, §3

HuT102 = conditions: Homo sapiens, HuT-102; HuT102, Lymphoma; 48 hours
Experimental: as §1, §2, §3

T-47D = conditions: Homo sapiens, T47D, Breast, 48 hours
Experimental: as §1, §2, §3

HS 578T = conditions: Homo sapiens, Breast, 48 hours
Experimental: as §1, §2, §3

NCI-H460 = conditions: Homo sapiens; NCI-H460, Non Small Cell Lung; 48 hours
Experimental: as §1, §2, §3

Reh = conditions: Homo sapiens, Leukemia, 48 hours
Experimental: as §1, §2, §3

UO-31 = conditions: Homo sapiens; UO-31, Renal; 48 hours
Experimental: as §1, §2, §3

## CN1CCC[C@H]1CCNC(=O)c1cn2c3c(c(N4CCC(c5cnccn5)C4)c(F)cc3c1=O)Oc1cc3ccccc3cc1-2 (stereo partly shown) [TA1-1B]
Kasumi-1
  EC50: 2050 nM
OVCAR-3
  EC50: 4280 nM
RPMI-8226
  EC50: 1370 nM
OVCAR-5
  EC50: 2170 nM
JM1
  EC50: 2230 nM
MOLT4
  EC50: 1220 nM
MV-4-11
  EC50: 5810 nM
SF-295
  EC50: 4270 nM
Karpas299
  EC50: 3920 nM
Hs602
  EC50: 1280 nM
Ramos
  EC50: 1330 nM
Daudi
  EC50: 1290 nM
DOHH2
  EC50: 1560 nM
HT
  EC50: 2440 nM
MDA-MB-435
  EC50: 3630 nM
786-0
  EC50: 4340 nM
KG-1
  EC50: 3970 nM
SF-268
  EC50: 1230 nM
IGROV1
  EC50: 4440 nM
U266B1
  EC50: 1620 nM
H9
  EC50: 2240 nM
Jurkat
  EC50: 1210 nM
U251
  EC50: 2680 nM
HCC-2998
  EC50: 2540 nM
SUDHL4
  EC50: 1340 nM
HuT102
  EC50: 1050 nM
T-47D
  EC50: 6560 nM
HS 578T
  EC50: 1940 nM
NCI-H460
  EC50: 4010 nM
Reh
  EC50: 1320 nM
UO-31
  EC50: 2380 nM
